Values of other authors in US20160051533A1, “DIAGNOSIS AND PHARMACOLOGICAL TREATMENT OF SEASONAL AFFECTIVE DISORDER AND SYMPTOMS OF SEASONALITY” (Ladd Research LLC, priority 2014, published 2016).
Ends that are not written are not given here.

Assays:
[1] = system: rat ventral tegmental area dopamine neurons; settings: 0.0001-10 micro molar orexin A; nearly half of the tested neurons; cited from earlier work
mice = settings: no photoperiod manipulation; cited from earlier work

Compound	basal firing frequency [1]	immobility in Forced Swim Test and Tail Suspension Test (mice)
orexin A: neuropeptide of 33 amino acid residues with two disulfide bonds, derived from prepro-orexin (QPLPDCCRQKTCSCRLYELLHGAGNHAAGILTL; disulfide (positions not given here); ends not checked; also: two disulfide bonds, pairing not given here; UniProt O43612 34-66, looked up)	175+/−17 % of control	–
Cc1nc2ccc(NC(=O)Nc3ccnc4cccnc34)cc2o1 [SB-334867]	–	decreased immobility
